Tested on: 252836-082-R-J2-PDC tumor spheroids, viability
Experiment: Anticancer human tumor 252836-082-R-J2-PDC patient-derived head and neck squamous cell carcinoma cell line growth inhibition [PI3K]
Details: spheroids with HUVEC and MSC; for IC50: curve of first compound; for viability, T/C: stronger effect = lower value
Source text: Combinatorial screen of targeted agents with the PI3K inhibitors inavolisib, alpelisib, duvelisib, and copanlisib in multi-cell type tumor spheroids
A high-throughput screen of multi-cell type tumor spheroids was designed to identify active combinations of targeted small molecules and PI3K pathway inhibitors. Complex spheroids include a stromal component modeled by human endothelial cells (HUVEC) and fibroblasts modeled by human mesenchymal stem cells (MSCs). The concentration ranges selected for each drug and investigational agent were based upon clinically achievable concentrations if the clinical Cmax of the agent was known.
Compounds. The drugs and investigational agents: inavolisib (NSC800729), alpelisib (NSC765974), duvelisib (NSC772469), copanlisib (NSC816437), ipatasertib (NSC767898), afuresertib (NSC778305), talazoparib (NSC767125), sapanisertib (NSC764658), selumetinib (NSC741078), tovorafenib (DAY101, NSC766906), vemurafenib (NSC761431), ravoxertinib (NSC781343), sotorasib (NSC818433), MRTX1133 (NSC 836407), abemaciclib (NSC 768073), palbociclib (NSC758247), venetoclax (NSC 766270), SY5609 (NSC837396), enzalutamide (NSC755605), and darolutamide (NSC825331), were obtained from the National Cancer Institute (NCI) Developmental Therapeutics Program Chemical Repository. The FDA-approved anticancer drug set is available from the NCI Developmental Therapeutics Program. […] The stock solutions were prepared in dimethyl sulfoxide (DMSO, Sigma-Aldrich, St. Louis, MO, cat. D2650) at 800-fold the tested concentration and stored at -70 degrees C prior to their use. All drugs and investigational agents were tested over a range starting from a high concentration at or near the clinical Cmax and decreasing in half-log increments. If the clinical Cmax for an agent had not been determined, the highest concentration tested was 10 microM.
Cell Culture. All cells were maintained in an incubator at 37 degrees C and 5% CO2 with 95% humidity. The PDC lines were cultured according to standard operating procedures established by the NCI PDMR (https://pdmr.cancer.gov/sops/default.htm). All PDCs were thawed and cultured in Matrigel-coated flasks prepared with a working solution of 1X Ham's F-12 nutrient mix, without supplementation (Invitrogen, Waltham, MA, cat. 11765054), 100 U/mL penicillin-streptomycin (Invitrogen, cat. 15140122), and 2.5% Matrigel (Corning Inc., Corning, NY, cat. 354248) for the first three passages. The 354836-022-R-J1-PDC, 475296-252-R-J1-PDC, and 997726-040-R-J2-PDC lines were cultured in 6A media, which includes advanced DMEM/F-12 (Thermo Fisher Scientific, cat. 12634028), 10 mM HEPES (Thermo Fisher Scientific, cat. 15630080), 1X GlutaMAX supplement (Thermo Fisher Scientific, cat. 35050061), 0.1 mg/mL primocin (InvivoGen, San Diego, CA, cat. ant-pm-2), 10% defined fetal bovine serum, heat inactivated (HyClone Laboratories Inc., Logan, UT, cat. SH30070.03HI), 50% L-WRN conditioned media (ATCC, cat. CRL-3276), 1.25 mM N-Acetyl-L-cysteine (Sigma-Aldrich, cat. A9165), 10 mM nicotinamide (Sigma-Aldrich, cat. N0636), 1X B-27 supplement (Thermo Fisher Scientific, cat. 17504044), 1X N-2 supplement (Thermo Fisher Scientific, cat. 17502048), and 10 microM Y-27632 dihydrochloride (Tocris Bioscience, Bristol, United Kingdom, cat. 1254). The 624824-186-R-J2-PDC line was cultured in 6C/Colon 1B media, which includes all 6A media components plus 50 ng/mL human EGF recombinant protein (Thermo Fisher Scientific, cat. PHG0311). […]

[1] = second compound 0.00316 µM, first compound 0.0316 µM
[2] = second compound 0.00316 µM, first compound 0.1 µM
[3] = second compound 0.01 µM, first compound 0.0316 µM
[4] = second compound 0.01 µM, first compound 0.1 µM
[5] = second compound 0.0316 µM, first compound 0.0316 µM
[6] = second compound 0.0316 µM, first compound 0.1 µM
[7] = second compound 0.1 µM, first compound 0.0316 µM
[8] = second compound 0.1 µM, first compound 0.1 µM
[9] = second compound 0.316 µM, first compound 0.0316 µM
[10] = second compound 0.316 µM, first compound 0.1 µM
[11] = second compound 1 µM, first compound 0.0316 µM
[12] = second compound 1 µM, first compound 0.1 µM
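Note: spheroids exposed to agents for seven days before readout.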
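Throughout, for viability, T/C: percent of vehicle DMSO control viability so 100% = untreated growth.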

Which IC50 (second compound 0.00316 µM) does the source give for CC(C)n1nc(-c2ccc3oc(N)nc3c2)c2c(N)ncnc21 + CC(Nc1ccc2c(c1)OCCn1cc(N3C(=O)OCC3C(F)F)nc1-2)C(N)=O here?
The IC50 was 36.9 nM.

And the IC50 (second compound 0.01 µM)?
Its IC50 is 26.9 nM.

And the IC50 (second compound 0.0316 µM)?
The IC50 was 22.4 nM.

What about the IC50 (second compound 0.1 µM) of the same compound?
Its IC50 is 9.42 nM.

And the IC50 (second compound 0.316 µM)?
Its IC50 is 4.07 nM.

What about the IC50 (second compound 1 µM) of the same compound?
The IC50 was less than 0.316 nM.

What about the viability, T/C (second compound 0.00316 µM, first compound 0.000316 µM) of the same compound?
Its viability, T/C is 108%.

What about the viability, T/C (second compound 0.00316 µM, first compound 0.001 µM) of the same compound?
The viability, T/C was 81.8%.

What about the viability, T/C (second compound 0.00316 µM, first compound 0.00316 µM) of the same compound?
The viability, T/C was 79%.

What about the viability, T/C (second compound 0.00316 µM, first compound 0.01 µM) of the same compound?
The viability, T/C was 86%.

And the viability, T/C [1]?
The viability, T/C was 51.1%.

And the viability, T/C [2]?
The viability, T/C was 21.9%.

And the viability, T/C (second compound 0.01 µM, first compound 0.000316 µM)?
Its viability, T/C is 94%.

And the viability, T/C (second compound 0.01 µM, first compound 0.001 µM)?
The viability, T/C was 81.1%.

And the viability, T/C (second compound 0.01 µM, first compound 0.00316 µM)?
Its viability, T/C is 73.6%.

What about the viability, T/C (second compound 0.01 µM, first compound 0.01 µM) of the same compound?
Its viability, T/C is 69.4%.

What about the viability, T/C [3] of the same compound?
The viability, T/C was 47.7%.

What about the viability, T/C [4] of the same compound?
The viability, T/C was 21.3%.

And the viability, T/C (second compound 0.0316 µM, first compound 0.000316 µM)?
The viability, T/C was 86.2%.

What about the viability, T/C (second compound 0.0316 µM, first compound 0.001 µM) of the same compound?
Its viability, T/C is 77.4%.

What about the viability, T/C (second compound 0.0316 µM, first compound 0.00316 µM) of the same compound?
The viability, T/C was 80.7%.

What about the viability, T/C (second compound 0.0316 µM, first compound 0.01 µM) of the same compound?
Its viability, T/C is 61.7%.

What about the viability, T/C [5] of the same compound?
The viability, T/C was 44.8%.

What about the viability, T/C [6] of the same compound?
Its viability, T/C is 19.4%.

And the viability, T/C (second compound 0.1 µM, first compound 0.000316 µM)?
Its viability, T/C is 78.2%.

And the viability, T/C (second compound 0.1 µM, first compound 0.001 µM)?
Its viability, T/C is 65.1%.

What about the viability, T/C (second compound 0.1 µM, first compound 0.00316 µM) of the same compound?
Its viability, T/C is 59.5%.

What about the viability, T/C (second compound 0.1 µM, first compound 0.01 µM) of the same compound?
Its viability, T/C is 52.5%.

What about the viability, T/C [7] of the same compound?
Its viability, T/C is 35.2%.

And the viability, T/C [8]?
Its viability, T/C is 15.9%.

What about the viability, T/C (second compound 0.316 µM, first compound 0.000316 µM) of the same compound?
The viability, T/C was 55.1%.

What about the viability, T/C (second compound 0.316 µM, first compound 0.001 µM) of the same compound?
The viability, T/C was 52.3%.

What about the viability, T/C (second compound 0.316 µM, first compound 0.00316 µM) of the same compound?
The viability, T/C was 56.6%.

And the viability, T/C (second compound 0.316 µM, first compound 0.01 µM)?
Its viability, T/C is 40%.

And the viability, T/C [9]?
Its viability, T/C is 28.9%.

What about the viability, T/C [10] of the same compound?
The viability, T/C was 16.6%.

And the viability, T/C (second compound 1 µM, first compound 0.000316 µM)?
The viability, T/C was 46.4%.

And the viability, T/C (second compound 1 µM, first compound 0.001 µM)?
Its viability, T/C is 52.5%.

And the viability, T/C (second compound 1 µM, first compound 0.00316 µM)?
Its viability, T/C is 42.4%.

What about the viability, T/C (second compound 1 µM, first compound 0.01 µM) of the same compound?
Its viability, T/C is 37.8%.

And the viability, T/C [11]?
The viability, T/C was 26.6%.

What about the viability, T/C [12] of the same compound?
Its viability, T/C is 11.9%.

CCCS(=O)(=O)Nc1ccc(F)c(C(=O)c2c[nH]c3ncc(-c4ccc(Cl)cc4)cc23)c1F + CC(Nc1ccc2c(c1)OCCn1cc(N3C(=O)OCC3C(F)F)nc1-2)C(N)=O was tested. Which IC50 (second compound 0.00316 µM) did it give?
Its IC50 is 5210 nM.

And the IC50 (second compound 0.01 µM)?
The IC50 was 5490 nM.

What about the IC50 (second compound 0.0316 µM) of the same compound?
The IC50 was 4300 nM.

And the IC50 (second compound 0.1 µM)?
Its IC50 is 3430 nM.

What about the IC50 (second compound 0.316 µM) of the same compound?
The IC50 was 3840 nM.

What about the IC50 (second compound 1 µM) of the same compound?
The IC50 was less than 31.6 nM.

And the viability, T/C [1]?
Its viability, T/C is 98%.

What about the viability, T/C [2] of the same compound?
Its viability, T/C is 90.1%.

And the viability, T/C (second compound 0.00316 µM, first compound 0.316 µM)?
Its viability, T/C is 102%.

And the viability, T/C (second compound 0.00316 µM, first compound 1 µM)?
The viability, T/C was 103%.

And the viability, T/C (second compound 0.00316 µM, first compound 3.16 µM)?
Its viability, T/C is 84.1%.

What about the viability, T/C (second compound 0.00316 µM, first compound 10 µM) of the same compound?
The viability, T/C was 5.37%.

What about the viability, T/C [3] of the same compound?
The viability, T/C was 80.5%.

What about the viability, T/C [4] of the same compound?
The viability, T/C was 88.5%.

And the viability, T/C (second compound 0.01 µM, first compound 0.316 µM)?
The viability, T/C was 97.6%.

And the viability, T/C (second compound 0.01 µM, first compound 1 µM)?
Its viability, T/C is 100%.

And the viability, T/C (second compound 0.01 µM, first compound 3.16 µM)?
Its viability, T/C is 92.3%.

What about the viability, T/C (second compound 0.01 µM, first compound 10 µM) of the same compound?
The viability, T/C was 4.83%.

What about the viability, T/C [5] of the same compound?
The viability, T/C was 76.3%.

And the viability, T/C [6]?
Its viability, T/C is 90%.

What about the viability, T/C (second compound 0.0316 µM, first compound 0.316 µM) of the same compound?
Its viability, T/C is 87%.

What about the viability, T/C (second compound 0.0316 µM, first compound 1 µM) of the same compound?
Its viability, T/C is 91.2%.

And the viability, T/C (second compound 0.0316 µM, first compound 3.16 µM)?
Its viability, T/C is 66.9%.

And the viability, T/C (second compound 0.0316 µM, first compound 10 µM)?
The viability, T/C was 3.26%.

And the viability, T/C [7]?
The viability, T/C was 71.9%.

And the viability, T/C [8]?
The viability, T/C was 77.4%.

And the viability, T/C (second compound 0.1 µM, first compound 0.316 µM)?
The viability, T/C was 69.1%.

What about the viability, T/C (second compound 0.1 µM, first compound 1 µM) of the same compound?
Its viability, T/C is 66.4%.

What about the viability, T/C (second compound 0.1 µM, first compound 3.16 µM) of the same compound?
The viability, T/C was 54.5%.

And the viability, T/C (second compound 0.1 µM, first compound 10 µM)?
Its viability, T/C is 4.8%.

What about the viability, T/C [9] of the same compound?
The viability, T/C was 64.4%.

And the viability, T/C [10]?
The viability, T/C was 67.4%.

And the viability, T/C (second compound 0.316 µM, first compound 0.316 µM)?
The viability, T/C was 65.8%.

And the viability, T/C (second compound 0.316 µM, first compound 1 µM)?
Its viability, T/C is 48.9%.

What about the viability, T/C (second compound 0.316 µM, first compound 3.16 µM) of the same compound?
Its viability, T/C is 59.7%.

And the viability, T/C (second compound 0.316 µM, first compound 10 µM)?
Its viability, T/C is 4.86%.

What about the viability, T/C [11] of the same compound?
Its viability, T/C is 49.1%.

What about the viability, T/C [12] of the same compound?
The viability, T/C was 48.2%.

And the viability, T/C (second compound 1 µM, first compound 0.316 µM)?
Its viability, T/C is 46%.

What about the viability, T/C (second compound 1 µM, first compound 1 µM) of the same compound?
The viability, T/C was 46.2%.

What about the viability, T/C (second compound 1 µM, first compound 3.16 µM) of the same compound?
Its viability, T/C is 41.3%.

And the viability, T/C (second compound 1 µM, first compound 10 µM)?
The viability, T/C was 5.27%.

From PubChem BioAssay AID1963985 (Molecular Pharmacology Branch, DTP, NCI, 2024)
